In patent US20250195452A1, “ER-BETA ESTROGENIC COMPOUNDS AND METHODS OF USE” (laterion, Inc., priority 2022, published 2025):
“Also recorded” adds a separate entry of the source.

Experiments:
ERα = target: T1, ERα (Homo sapiens, UniProt P03372); experiment: Luciferase activity of ligands on the activation of the NKG2E ERE in U2OS-ERα cells; format: cell-based; details: for Activity in ERα U2OS cells: indicated micromolar concentrations, 24 hours; for Activation of ERα (NKG2E ERE luciferase activity): U2OS-ERα cells
T1 construct: expressed in transfected cells; host or cells: U2OS
T1 sequence (P03372 1-595): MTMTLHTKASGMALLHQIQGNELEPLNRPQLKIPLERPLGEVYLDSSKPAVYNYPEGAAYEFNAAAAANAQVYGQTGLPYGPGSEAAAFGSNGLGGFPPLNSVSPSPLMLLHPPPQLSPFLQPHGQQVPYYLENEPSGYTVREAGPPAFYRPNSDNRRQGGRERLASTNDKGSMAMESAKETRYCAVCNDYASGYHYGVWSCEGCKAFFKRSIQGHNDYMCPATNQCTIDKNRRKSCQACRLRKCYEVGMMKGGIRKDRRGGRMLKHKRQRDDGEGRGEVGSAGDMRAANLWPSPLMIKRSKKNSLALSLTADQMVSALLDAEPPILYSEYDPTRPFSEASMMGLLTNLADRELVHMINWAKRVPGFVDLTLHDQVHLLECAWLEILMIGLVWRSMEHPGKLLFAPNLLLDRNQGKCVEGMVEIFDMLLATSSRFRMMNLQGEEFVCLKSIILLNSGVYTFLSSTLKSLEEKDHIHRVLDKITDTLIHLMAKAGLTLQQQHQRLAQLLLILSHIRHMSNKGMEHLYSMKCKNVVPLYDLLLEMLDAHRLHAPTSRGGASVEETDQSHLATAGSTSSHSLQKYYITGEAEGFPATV
Description: (§1) U2OS cells (wild type) were maintained in 5% charcoal-dextran stripped FBS.

ERβ = target: T2, ERβ (Homo sapiens, UniProt Q92731); experiment: Luciferase activity in U2OS cells transfected with NKG2E-TK-Luc and ERβ; format: cell-based; details: 200 nM
T2 construct: expressed in transfected cells; host or cells: U2OS
T2 sequence (Q92731 whole entry): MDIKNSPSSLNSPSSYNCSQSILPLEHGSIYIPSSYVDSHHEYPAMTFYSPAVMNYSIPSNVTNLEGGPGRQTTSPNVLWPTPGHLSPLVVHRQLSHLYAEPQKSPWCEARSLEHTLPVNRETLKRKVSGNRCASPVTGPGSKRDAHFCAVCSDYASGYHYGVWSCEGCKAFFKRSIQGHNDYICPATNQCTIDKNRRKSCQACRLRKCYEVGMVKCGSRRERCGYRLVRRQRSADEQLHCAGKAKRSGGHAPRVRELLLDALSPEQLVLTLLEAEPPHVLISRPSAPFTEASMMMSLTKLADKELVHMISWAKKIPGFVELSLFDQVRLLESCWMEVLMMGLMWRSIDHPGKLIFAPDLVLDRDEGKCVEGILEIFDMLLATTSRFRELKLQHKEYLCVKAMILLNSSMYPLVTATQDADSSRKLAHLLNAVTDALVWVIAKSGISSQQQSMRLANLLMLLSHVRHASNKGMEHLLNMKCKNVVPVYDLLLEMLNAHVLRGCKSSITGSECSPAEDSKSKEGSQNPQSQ
Experimental: as §1
Luciferase activity for each of the tested compounds was recorded.

GRE-TK-Luk, GR, and ERβ = experiment: Luciferase activity in GRE-TK-Luc-transfected U2OS-ERβ cells with doxycycline and hydrocortisone; format: cell-based; details: HC 100 nM; compounds at 0.5, 1, 2.5 and 5 μM; doxycycline
Experimental: Example 12: Luciferase Activity in GRE-TK-Luc-Transfected U2OS-ERβ cells with doxycycline. Doxycycline-dependent U2OS cells were transfected with GRE-TK-Luk, GR, and ERβ in the presence of hydrocortisone (HC, 100 nM) alone or in combination with Liquiritigenin, A10, A13, and A15. Luciferase activity for each of the compounds at 0.5, 1, 2.5 and 5 μM concentration was recorded.

[1] = Effects of ERβ compounds on uterine weight (histology, FIG. 16A-B); format: in vivo; details: in comparison to estradiol
Description: Example 11: Effects of ERβ compounds on uterine and breast cancer cells.

[2] = test system: MCF-7 breast cancer cells; experiment: Effects of ERβ compounds on breast cancer tumor formation (histology, FIG. 16A-B); format: in vivo; details: in comparison to estradiol

Compound | Activity in ERα U2OS cells (ERα) | Activation of ERβ (NKG2E-TK-Luc luciferase activity) (ERβ) | also measured
O=c1cc(-c2ccc(O)cc2)oc2cccc(O)c12 [5,4′-Dihydroxyflavone] | little or no activity | activate ERβ | –
COc1c(O)cc2oc(-c3ccc(O)c(O)c3)cc(=O)c2c1O [6-methoxyluteolin] | little or no activity | – | –
O=c1cc(-c2ccc(O)cc2)oc2cc(O)ccc12 [7,4′-Dihydroxyflavone] | little or no activity | activate ERβ | Activation of ERα (NKG2E ERE luciferase activity) (ERα; 5 μM): activate ERα
O=C(/C=C/c1cccc(O)c1)c1ccc(O)c(O)c1O [A10, (E)-3-(3-hydroxyphenyl)-1-(2,3,4-trihydroxyphenyl) prop-2-en-1-one] | – | – | Effect on hydrocortisone (HC) induced luciferase activity (GRE-TK-Luk, GR, and ERβ): attenuated the effect of HC
O=C(/C=C/c1ccc(O)cc1)c1ccccc1 [A15, (E)-3-(4-hydroxyphenyl)-1-phenylprop-2-en-1-one] | – | – | Effect on hydrocortisone (HC) induced luciferase activity (GRE-TK-Luk, GR, and ERβ): attenuated the effect of HC
O=C(/C=C/c1ccc(O)cc1)c1ccc(O)cc1 [Analog 13, (E)-1,3-bis(4-hydroxyphenyl) prop-2-en-1-one] | – | activate ERβ | Activation of ERα (NKG2E ERE luciferase activity) (ERα; 5 μM): activate ERα; Effect on hydrocortisone (HC) induced luciferase activity (GRE-TK-Luk, GR, and ERβ): attenuated the effect of HC
Oc1ccc([C@H]2COc3cc(O)ccc3C2)cc1 [Equol] | little or no activity | – | Activation of ERα (NKG2E ERE luciferase activity) (ERα; 1 μM): activate ERα
O=C1C[C@@H](c2ccc(O)cc2)Oc2cc(O)ccc21 [Liquiritigenin] | little or no activity | – | Activation of ERα (NKG2E ERE luciferase activity) (ERα; 5 μM): activate ERα; Uterine weight [1]: do not increase uterine weight; Breast cancer tumor formation ([2]; listed as IATERB7): do not increase uterine weight or cause breast cancer tumor formation; also recorded: do not increase uterine breast cancer tumor formation; Effect on hydrocortisone (HC) induced luciferase activity (GRE-TK-Luk, GR, and ERβ): attenuated the effect of HC
O=c1cc(-c2ccc(O)c(O)c2)oc2cc(O)cc(O)c12 [Luteolin] | little or no activity | – | –
C=C[C@H](/C=C\c1ccc(O)cc1)c1ccc(O)cc1 [Nyasol] | little or no activity | activate ERβ | Activation of ERα (NKG2E ERE luciferase activity) (ERα; 1 μM): activate ERα; Uterine weight [1]: do not increase uterine weight; Breast cancer tumor formation ([2]; listed as IATERB5): do not increase uterine weight or cause breast cancer tumor formation; also recorded: do not increase uterine breast cancer tumor formation
Broussonin A | little or no activity | – | Activation of ERα (NKG2E ERE luciferase activity) (ERα; 1 μM): activate ERα

Further lines, with some results ahead:

Activity in ERα U2OS cells (ERα) | Activation of ERβ (NKG2E-TK-Luc luciferase activity) (ERβ) | Compound | also measured
little or no activity | – | O=c1c(O)c(-c2ccc(O)cc2)oc2ccccc12 [3,4′-Dihydroxyflavone] | –
little or no activity | activate ERβ | O=c1cc(-c2ccc(O)cc2)oc2ccc(O)cc12 [6,4′-Dihydroxyflavone] | Activation of ERα (NKG2E ERE luciferase activity) (ERα; 1 μM): activate ERα
little or no activity | – | O=c1cc(-c2ccccc2O)oc2cc(O)ccc12 [7,2′-Dihydroxyflavone] | –
little or no activity | – | O=c1cc(-c2cccc(O)c2)oc2cc(O)ccc12 [7,3′-Dihydroxyflavone] | –
– | activate ERβ | O=c1cc(-c2ccc(O)cc2)oc2cc(O)cc(O)c12 [Apigenin] | –
little or no activity | – | COc1ccc(-c2coc3cc(O)ccc3c2=O)cc1O [Calycosin] | Uterine weight [1]: do not increase uterine weight; Breast cancer tumor formation ([2]; listed as IATERB6): do not increase uterine weight or cause breast cancer tumor formation; also recorded: do not increase uterine breast cancer tumor formation
little or no activity | – | O=c1c(O)c(-c2ccccc2)oc2cc(O)cc(O)c12 [Galangin] | –
little or no activity | activate ERβ | O=C1C[C@@H](c2ccc(O)cc2)Oc2cc(O)cc(O)c21 [Naringenin] | –
little or no activity | – | COc1c(O)cc(O)c2c(=O)cc(-c3ccccc3)oc12 [Wogonin] | –
